Experimental data: publication PMC7048748, “Anxiolytic Drug FGIN-1-27 Ameliorates Autoimmunity by Metabolic Reprogramming of Pathogenic Th17 Cells” (Scientific Reports, 2020)

How the values were obtained:
[1] = test system: Th17 cells; test: Rescue of IL-17 production by NAC pre-treatment; format: cell-based, mouse; details: NAC 1 µM pre-treatment, 10 µM FGIN-1-27
Method: Figure 5 FGIN-1-27 induces amino acid starvation response (AAR). (a) MA-plot showing shrunken log2 fold-changes of detected genes between the DMSO and FGIN-1-27 RNA-seq samples, ranked by average normalized count. Red dots indicate differentially expressed genes at adjusted p-value <0.05. (b) Transcript levels for the indicated genes after 24 hours of treatment with DMSO or FGIN-1-27 quantified by qPCR. The error bars represent SD. (c) Western blot analysis for phosphorylated eIF2α and ATF4 24 hours after treatment with DMSO or FGIN-1-27 (5 and 10 µM). Data are representative of 3 independent experiments. (d) Amino acids in Th17 cells measured 72 hours after treatment with FGIN-1-27. The error bars represent SD. (e) ROS was measured using cell permeant reagent 2′,7′ –dichlorofluorescin diacetate (DCFDA) at 24 hours following treatment with FGIN-1-27. Filled grey histogram-DMSO, dotted line-FGIN-1-27 (10 µM) and dashed line indicates FGIN-1-27 (5 µM). (f) Dose response plot showing effect of FGIN-1-27 on intracellular IL-17 after pre-treatment with NAC (1 µM). […]
Increased amino acid synthesis and transport is characteristic of the amino acid starvation response (AAR)[20]. […] Induction of ATF4 can be an indication of oxidative stress and we measured reactive oxygen species (ROS) using the cell permeant reagent 2′,7′ –dichlorofluorescin diacetate (DCFDA).

[2] = test system: Th17 responses; parameters: method as in PMID 19498172; details: activation of the AAR; cited from earlier work

In the case of `CC(=O)N[C@@H](CS)C(=O)O` [NAC, N-acetyl cysteine], the “rescue of defective IL-17 production” value [1] is reported as 14%.

In the case of `O=C(CC1NCCCC1O)Cn1cnc2cc(Br)c(Cl)cc2c1=O` (centres unmarked) [halofuginone], the Th17 responses [2] is given as “down-regulate Th17 responses”.
